Measurements as given in the METLIN SMRT retention time set (Domingo-Almenara et al. 2019).

Assay: gradient 5% acetonitrile 3 min, to 50% in 2 min, to 85% in 15 min, held 3 min, 100 µL/min
Settings: column: Zorbax Extend-C18 2.1 x 50 mm; eluents: water / acetonitrile, 0.1% formic acid
Summary of the method: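 Over 3 months, pure standards in mixtures of ~100 molecules were run by HPLC coupled to a quadrupole time-of-flight mass spectrometer in positive and negative ionization mode. The column was a Zorbax Extend-C18 (2.1 × 50 mm, 1.8 μm) at 100 μL/min, eluted with water and acetonitrile each holding 0.1% formic acid, with 40 μL dead and 900 μL dwell volumes. Retention time was determined from adduct peaks chosen by software and checked manually.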

SMILES | RP-LC retention time
Clc1cccc(-c2ccc(CNCc3ccc4c(c3)OCO4)o2)c1 | 741 s
Cc1cc2c(N3CCCC(C(=O)NCc4ccc(Br)cc4)C3)nccc2s1 (centres undefined) | 702 s
O=C1c2ccccc2C(=O)c2[nH]cnc21 | 661 s
O=S(=O)(NCc1nc(-c2ccc(-c3csc(C4CC4)n3)cc2)no1)c1ccccc1 | 1100 s
O=C(NCCc1ccccc1)C1CCCN(c2ncnc3c2nc2n3CCCCC2)C1 (centres undefined) | 758 s
Cc1cc(-n2nnc(C(=O)O)c2-c2ccccn2)ccc1F | 642 s
CCc1ccc(C2=C(C)C(N3CCCN(C(=O)C4CCCCC4)CC3)=NS2(=O)=O)cc1 | 976 s
Cc1ccccc1-c1nnc(CSc2nnc(NC(=O)c3cccs3)s2)o1 | 908 s
Cn1ncc2c(N3CCCC3)nc(C(=O)NCc3cccs3)nc21 | 742 s
Cc1nnc(-c2cc(C)n(CC(=O)Nc3ccc(Cl)cc3)c2C)o1 | 820 s
COc1ccc(-c2nn(-c3ccccc3)cc2C2NC(=O)NC(C)=C2C(=O)OC(C)C)cc1 (centres undefined) | 906 s
CC1(C(=O)NCc2cccc(F)c2)CCCN(S(=O)(=O)c2ccccc2)C1 (centres undefined) | 902 s
CCc1c(C2CCN(C(=O)c3cc(C)oc3C)CC2)noc1N | 704 s
CCOc1ccc(NC(=O)c2c(NC(=O)c3ccncc3)sc3c2CCC3)cc1 | 1270 s
COc1ccc(C)cc1NC(=O)Cn1cnc2nc(N3CCC(C(=O)NC4CC4)CC3)sc2c1=O | 723 s
COc1cc(-c2noc(Cc3nnc(-c4ccc(C)c(C)c4)o3)n2)cc(OC)c1OC | 1010 s
CCc1ccc(-c2cn3cc(C(=O)NC4CC4)ccc3n2)cc1 | 655 s

SMILES | RP-LC retention time
Cc1cc(=O)n(CC(=O)NCc2ccc(F)cc2)c(N2CCCCC2)n1 | 656 s
Clc1ccc(Cl)c(-c2ccc(CNCc3ccco3)o2)c1 | 737 s
Cc1cccc(-n2c(=O)c3sccc3n(Cc3nc(-c4ccc(OC(C)C)cc4)no3)c2=O)c1 | 1120 s
Cc1ccn2c(NC(=O)CCc3ccccc3)c(-c3ccccc3)nc2c1 | 642 s
O=C(NC1CCN(C(=O)c2cc(-c3cccs3)[nH]n2)CC1)c1ccc(Cl)cc1 | 778 s
CN(C)S(=O)(=O)c1ccc2c(c1)N(CC(=O)NC1CCCC1)C(=O)C1CCCCN21 (centres undefined) | 856 s
CC1=C(c2ccccc2)S(=O)(=O)N=C1N1CCCN(C(=O)CC(C)C)CC1 | 803 s
O=C(NC1CCc2ccccc21)c1nnn(-c2ccc(F)cc2)c1-c1ccncc1 (centres undefined) | 799 s
Cc1nc(-c2ccc(F)cc2)sc1C(=O)N[C@@H](Cc1c[nH]c2ccccc12)C(=O)O | 838 s
COc1cc(-c2nnc(-c3cccc(S(=O)(=O)N4CCCC4)c3)o2)cc(OC)c1OC | 916 s
CCOC(=O)NCC1CCN(S(C)(=O)=O)CC1 | 603 s
CC(=O)N1CCc2cc(C)c(S(=O)(=O)N3CCN(C)CC3)cc21 | 585 s
Cc1cccc(Oc2cc(N3CCC(C(=O)Nc4cccc(C(C)C)c4)CC3)ncn2)c1C | 1200 s
CCOC(=O)C1=C(CN2CCN(C)CC2)NC(=O)NC1c1ccc(OC(C)C)cc1 (centres undefined) | 636 s
CCOC(=O)N1CCN(C(=O)C2CCC(=O)N(c3ccc(OC)cc3)C2c2ccc(F)cc2)CC1 (centres undefined) | 726 s
COCCOCC(=O)NCC1CCCCC(=O)N1 (centres undefined) | 576 s
Cc1c(C)n(CC(O)CNC(C)c2ccccc2)c2ccccc12 (centres undefined) | 605 s
